In US12077503B2, “Substituted cyclic amides and their use as herbicides” (FMC CORPORATION, priority 2015, dated 2024):

Legend:
Type in all cases: in vivo
[1] = test system: barnyardgrass (Echinochloa crus-galli); assay: Test G Post-Emergence Protocol; conditions: Echinochloa crus-galli, post-emergence, 312 h; for pest or weed control at 15.625 g/ha: 15.625 g ai/ha, evaluated after 13 days (100=total damage to plant; 0=no damage to plant), read-out: Barnyardgrass damage rating; for pest or weed control at 62.5 g/ha: 62.5 g ai/ha, read-out: Barnyardgrass damage rating (100=total damage to plant; 0=no damage to plant); for pest or weed control at 62.5 g/ha / pest or weed control at 250 g/ha: evaluated after 13 days; for pest or weed control at 250 g/ha: 250 g ai/ha, read-out: damage to plant, Barnyardgrass (100=total damage to plant; 0=no damage to plant)
Summary of the method: (§1)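 Sow in soil; grow 8 d (24/16 °C, 14 h light, 65% humidity); spray 15.625/62.5/250 g/ha in acetone:water 50:50 + 0.5% Tween 20; grow on, water twice daily; score damage 0–100 at 13 d.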

[2] = test system: ivy-leaved morning glory (Ipomoea hederacea); assay: Test G Post-Emergence Protocol; conditions: Ipomoea, post-emergence, 312 h; for pest or weed control at 15.625 g/ha: 15.625 g ai/ha, evaluated after 13 days (100=total damage to plant; 0=no damage to plant), read-out: Morningglory, Ivy-leaved damage rating; for pest or weed control at 62.5 g/ha: 62.5 g ai/ha, read-out: Morningglory, Ivy-leaved damage rating (100=total damage to plant; 0=no damage to plant); for pest or weed control at 62.5 g/ha / pest or weed control at 250 g/ha: evaluated after 13 days; for pest or weed control at 250 g/ha: 250 g ai/ha, read-out: damage to plant, Morningglory, Ivy-leaved (100=total damage to plant; 0=no damage to plant)
Summary of the method: as §1

[3] = test system: redroot pigweed (Amaranthus retroflexus); assay: Test G Post-Emergence Protocol; conditions: Amaranthus retroflexus, post-emergence, 312 h; for pest or weed control at 15.625 g/ha: 15.625 g ai/ha, evaluated after 13 days (100=total damage to plant; 0=no damage to plant), read-out: Pigweed, Redroot damage rating; for pest or weed control at 62.5 g/ha: 62.5 g ai/ha, read-out: Pigweed, Redroot damage rating (100=total damage to plant; 0=no damage to plant); for pest or weed control at 62.5 g/ha / pest or weed control at 250 g/ha: evaluated after 13 days; for pest or weed control at 250 g/ha: 250 g ai/ha, read-out: damage to plant, Pigweed, Redroot (100=total damage to plant; 0=no damage to plant)
Summary of the method: as §1

[4] = test system: giant foxtail (Setaria faberi); assay: Test G Post-Emergence Protocol; conditions: Setaria faberi, post-emergence, 312 h; for pest or weed control at 15.625 g/ha: 15.625 g ai/ha, evaluated after 13 days (100=total damage to plant; 0=no damage to plant), read-out: Foxtail, Giant damage rating; for pest or weed control at 62.5 g/ha: 62.5 g ai/ha, read-out: Foxtail, Giant damage rating (100=total damage to plant; 0=no damage to plant); for pest or weed control at 62.5 g/ha / pest or weed control at 250 g/ha: evaluated after 13 days; for pest or weed control at 250 g/ha: 250 g ai/ha, read-out: damage to plant, Foxtail, Giant (100=total damage to plant; 0=no damage to plant)
Summary of the method: as §1

[5] = test system: velvetleaf (Abutilon theophrasti); assay: Test G Post-Emergence Protocol; conditions: Abutilon theophrasti, post-emergence, 312 h; for pest or weed control at 15.625 g/ha: 15.625 g ai/ha, evaluated after 13 days (100=total damage to plant; 0=no damage to plant), read-out: Velvetleaf damage rating; for pest or weed control at 62.5 g/ha: 62.5 g ai/ha, read-out: Velvetleaf damage rating (100=total damage to plant; 0=no damage to plant); for pest or weed control at 62.5 g/ha / pest or weed control at 250 g/ha: evaluated after 13 days; for pest or weed control at 250 g/ha: 250 g ai/ha, read-out: damage to plant, Velvetleaf (100=total damage to plant; 0=no damage to plant)
Summary of the method: as §1

corn (Zea mays) [6] = assay: Test G Post-Emergence Protocol; conditions: Zea mays, post-emergence, 312 h; for plant injury at 15.625 g/ha: 15.625 g ai/ha, evaluated after 13 days (100=total damage to plant; 0=no damage to plant), read-out: Corn damage rating; for plant injury at 62.5 g/ha: 62.5 g ai/ha, read-out: Corn damage rating (100=total damage to plant; 0=no damage to plant); for plant injury at 62.5 g/ha / plant injury at 250 g/ha: evaluated after 13 days; for plant injury at 250 g/ha: 250 g ai/ha, read-out: damage to plant, Corn (100=total damage to plant; 0=no damage to plant)
Summary of the method: as §1

[7] = test system: barnyardgrass (Echinochloa crus-galli); assay: Test G Pre-Emergence Protocol; conditions: Echinochloa crus-galli, pre-emergence, 312 h, evaluated after 13 days; for pest or weed control at 15.625 g/ha: 15.625 g ai/ha, read-out: Barnyard grass damage rating (100=total damage to plant; 0=no damage to plant); for pest or weed control at 62.5 g/ha: 62.5 g ai/ha, 100=total damage to plant, 0=no damage to plant, read-out: plant damage rating, Barnyardgrass; for pest or weed control at 250 g/ha: 250 g ai/ha, read-out: Barnyardgrass damage rating (100=total damage to plant; 0=no damage to plant)
Summary of the method: (§2)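 Test compound in 0.5% Tween 20 acetone/water (50:50) was applied at three rates (15.625, 62.5, 250 g/ha) to soil sown one day earlier. After 13 days plants were scored for injury, where 0 means unaffected and 100 means completely damaged.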

[8] = test system: ivy-leaved morning glory (Ipomoea hederacea); assay: Test G Pre-Emergence Protocol; conditions: Ipomoea, pre-emergence, 312 h, evaluated after 13 days; for pest or weed control at 15.625 g/ha: 15.625 g ai/ha, read-out: Morning-glory, Ivy-leaved damage rating (100=total damage to plant; 0=no damage to plant); for pest or weed control at 62.5 g/ha: 62.5 g ai/ha, 100=total damage to plant, 0=no damage to plant, read-out: plant damage rating, Morningglory, Ivy-leaved; for pest or weed control at 250 g/ha: 250 g ai/ha, read-out: Morningglory, Ivy-leaved damage rating (100=total damage to plant; 0=no damage to plant)
Summary of the method: as §2

[9] = test system: redroot pigweed (Amaranthus retroflexus); assay: Test G Pre-Emergence Protocol; conditions: Amaranthus retroflexus, pre-emergence, 312 h, evaluated after 13 days; for pest or weed control at 15.625 g/ha: 15.625 g ai/ha; for pest or weed control at 15.625 g/ha / pest or weed control at 250 g/ha: read-out: Pigweed, Redroot damage rating (100=total damage to plant; 0=no damage to plant); for pest or weed control at 62.5 g/ha: 62.5 g ai/ha, 100=total damage to plant, 0=no damage to plant, read-out: plant damage rating, Pigweed, Redroot; for pest or weed control at 250 g/ha: 250 g ai/ha
Summary of the method: as §2

[10] = test system: giant foxtail (Setaria faberi); assay: Test G Pre-Emergence Protocol; conditions: Setaria faberi, pre-emergence, 312 h, evaluated after 13 days; for pest or weed control at 15.625 g/ha: 15.625 g ai/ha; for pest or weed control at 15.625 g/ha / pest or weed control at 250 g/ha: read-out: Foxtail, Giant damage rating (100=total damage to plant; 0=no damage to plant); for pest or weed control at 62.5 g/ha: 62.5 g ai/ha, 100=total damage to plant, 0=no damage to plant, read-out: plant damage rating, Foxtail, Giant; for pest or weed control at 250 g/ha: 250 g ai/ha
Summary of the method: as §2

[11] = test system: velvetleaf (Abutilon theophrasti); assay: Test G Pre-Emergence Protocol; conditions: Abutilon theophrasti, pre-emergence, 312 h, evaluated after 13 days; for pest or weed control at 15.625 g/ha: 15.625 g ai/ha; for pest or weed control at 15.625 g/ha / pest or weed control at 250 g/ha: read-out: Velvetleaf damage rating (100=total damage to plant; 0=no damage to plant); for pest or weed control at 62.5 g/ha: 62.5 g ai/ha, 100=total damage to plant, 0=no damage to plant, read-out: plant damage rating, Velvetleaf; for pest or weed control at 250 g/ha: 250 g ai/ha
Summary of the method: as §2

corn (Zea mays) [12] = assay: Test G Pre-Emergence Protocol; conditions: Zea mays, pre-emergence, 312 h, evaluated after 13 days; for plant injury at 15.625 g/ha: 15.625 g ai/ha; for plant injury at 15.625 g/ha / plant injury at 250 g/ha: read-out: Corn damage rating (100=total damage to plant; 0=no damage to plant); for plant injury at 62.5 g/ha: 62.5 g ai/ha, 100=total damage to plant, 0=no damage to plant, read-out: plant damage rating, Corn; for plant injury at 250 g/ha: 250 g ai/ha
Summary of the method: as §2

Row | SMILES | pest or weed control at 15.625 g/ha [1] [%] | pest or weed control at 62.5 g/ha [1] [%] | pest or weed control at 250 g/ha [1] [%] | pest or weed control at 15.625 g/ha [2] [%] | pest or weed control at 62.5 g/ha [2] [%] | pest or weed control at 250 g/ha [2] [%] | pest or weed control at 15.625 g/ha [3] [%] | pest or weed control at 62.5 g/ha [3] [%] | pest or weed control at 250 g/ha [3] [%] | pest or weed control at 15.625 g/ha [4] [%] | pest or weed control at 62.5 g/ha [4] [%] | pest or weed control at 250 g/ha [4] [%] | pest or weed control at 15.625 g/ha [5] [%] | pest or weed control at 62.5 g/ha [5] [%] | pest or weed control at 250 g/ha [5] [%] | plant injury at 15.625 g/ha (corn (Zea mays) [6]) [%] | plant injury at 62.5 g/ha (corn (Zea mays) [6]) [%] | plant injury at 250 g/ha (corn (Zea mays) [6]) [%] | pest or weed control at 15.625 g/ha [7] [%] | pest or weed control at 62.5 g/ha [7] [%] | further results
1 | Cc1cc(C(F)(F)F)ccc1NC(=O)[C@H]1C(=O)N(C)C[C@@H]1c1ccc(C(F)(F)F)cc1 (racemic) [Compound 1411] | 0 | 0 | 0 | 0 | 0 | 0 | 0 | 0 | 0 | 0 | 0 | 0 | 0 | 0 | 0 | 0 | 0 | 0 | 0 | 0 | pest or weed control at 250 g/ha [7]: 0%; pest or weed control at 15.625 g/ha [8]: 0%; pest or weed control at 62.5 g/ha [8]: 0%; pest or weed control at 250 g/ha [8]: 0%; pest or weed control at 15.625 g/ha [9]: 0%; pest or weed control at 62.5 g/ha [9]: 0%; pest or weed control at 250 g/ha [9]: 0%; pest or weed control at 15.625 g/ha [10]: 0%; pest or weed control at 62.5 g/ha [10]: 0%; pest or weed control at 250 g/ha [10]: 0%; pest or weed control at 15.625 g/ha [11]: 0%; pest or weed control at 62.5 g/ha [11]: 0%; pest or weed control at 250 g/ha [11]: 0%; plant injury at 15.625 g/ha (corn (Zea mays) [12]): 0%; plant injury at 62.5 g/ha (corn (Zea mays) [12]): 0%; plant injury at 250 g/ha (corn (Zea mays) [12]): 0%
2 | CN1C[C@@H](c2ccc(C(F)(F)F)cc2)[C@H](C(=O)Nc2ncc(Cl)s2)C1=O (racemic) [Compound 1569] | 0 | 10 | 20 | 0 | 0 | 0 | 0 | 0 | 0 | 0 | 0 | 0 | 0 | 0 | 0 | 0 | 0 | 0 | 0 | 0 | pest or weed control at 250 g/ha [7]: 0%; pest or weed control at 15.625 g/ha [8]: 0%; pest or weed control at 62.5 g/ha [8]: 0%; pest or weed control at 250 g/ha [8]: 0%; pest or weed control at 15.625 g/ha [9]: 0%; pest or weed control at 62.5 g/ha [9]: 0%; pest or weed control at 250 g/ha [9]: 0%; pest or weed control at 15.625 g/ha [10]: 0%; pest or weed control at 62.5 g/ha [10]: 0%; pest or weed control at 250 g/ha [10]: 0%; pest or weed control at 15.625 g/ha [11]: 0%; pest or weed control at 62.5 g/ha [11]: 0%; pest or weed control at 250 g/ha [11]: 0%; plant injury at 15.625 g/ha (corn (Zea mays) [12]): 0%; plant injury at 62.5 g/ha (corn (Zea mays) [12]): 0%; plant injury at 250 g/ha (corn (Zea mays) [12]): 0%
3 | CN1C[C@@H](c2ccc(C(F)(F)F)cc2)[C@H](C(=O)Nc2ccn[nH]2)C1=O (racemic) [Compound 1573] | 0 | 0 | 0 | 0 | 0 | 0 | 0 | 0 | 0 | 0 | 0 | 0 | 0 | 0 | 0 | 0 | 0 | 0 | 0 | 0 | pest or weed control at 250 g/ha [7]: 0%; pest or weed control at 15.625 g/ha [8]: 0%; pest or weed control at 62.5 g/ha [8]: 0%; pest or weed control at 250 g/ha [8]: 0%; pest or weed control at 15.625 g/ha [9]: 0%; pest or weed control at 62.5 g/ha [9]: 0%; pest or weed control at 250 g/ha [9]: 0%; pest or weed control at 15.625 g/ha [10]: 0%; pest or weed control at 62.5 g/ha [10]: 0%; pest or weed control at 250 g/ha [10]: 0%; pest or weed control at 15.625 g/ha [11]: 0%; pest or weed control at 62.5 g/ha [11]: 0%; pest or weed control at 250 g/ha [11]: 0%; plant injury at 15.625 g/ha (corn (Zea mays) [12]): 0%; plant injury at 62.5 g/ha (corn (Zea mays) [12]): 0%; plant injury at 250 g/ha (corn (Zea mays) [12]): 0%
